Test results published in PubChem BioAssay (NCI).
Values joined by “and” are separate entries in the source; they are usually repeats but may differ in a detail not shown here. Equal values may be shown once.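 Growth conditions: 96-well plates. Treatment: test compound, 48 hours, 5 concentrations. Analysis: linear interpolation between bracketing concentrations; unreached endpoints set to highest concentration. GI50 marks 50% less growth. TGI marks complete inhibition of growth.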

Columns and labels:
Experiment in all cases: NCI anticancer screen, dose series, 48 h
A549 NSCLC = tested on: A549 NSCLC
ACHN renal = tested on: ACHN renal
CAKI-1 renal = tested on: CAKI-1 renal
MDA-MB-231 breast = tested on: MDA-MB-231 breast
OVCAR-8 ovarian = tested on: OVCAR-8 ovarian
SF-268 CNS = tested on: SF-268 CNS
SF-539 CNS = tested on: SF-539 CNS
SK-MEL-5 melanoma = tested on: SK-MEL-5 melanoma
SW-620 colon = tested on: SW-620 colon
EKVX NSCLC = tested on: EKVX NSCLC

SMILES | GI50 (A549 NSCLC) | TGI (A549 NSCLC) | GI50 (ACHN renal) | TGI (ACHN renal) | GI50 (CAKI-1 renal) | TGI (CAKI-1 renal) | GI50 (MDA-MB-231 breast) | TGI (MDA-MB-231 breast) | GI50 (OVCAR-8 ovarian) | TGI (OVCAR-8 ovarian) | GI50 (SF-268 CNS) | TGI (SF-268 CNS) | GI50 (SF-539 CNS) | TGI (SF-539 CNS) | GI50 (SK-MEL-5 melanoma) | TGI (SK-MEL-5 melanoma) | GI50 (SW-620 colon) | TGI (SW-620 colon) | TGI (EKVX NSCLC) | GI50 (EKVX NSCLC)
CCc1ccccc1NC(=O)c1sc2nc3c(cc2c1N)C(=O)CCC3 | 0.656 µM | > 100 µM | 1.17 µM | > 100 µM | 0.504 µM | > 100 µM | 1.49 µM | > 100 µM | 2.88 µM | > 100 µM | 11.9 µM | > 100 µM | 0.373 µM | 3.15 µM | 0.329 µM | > 100 µM | 0.329 µM | > 100 µM |  | 
CC(=O)c1sc(-c2nc(C)c(C(=O)/C=C\c3ccc(/C=C\C(=O)c4sc(-c5nc(C)c(C(C)=O)s5)nc4C)cc3)s2)nc1C |  | > 100 µM |  | > 100 µM |  | > 100 µM |  |  |  | > 100 µM |  | > 100 µM |  | > 100 µM |  |  |  | > 100 µM | > 100 µM | 
C[n+]1cc(C(O)c2ccc3c(c2)OCO3)c2ccccc2c1 (centres undefined) |  | > 100 µM |  | > 100 µM |  | 69.4 µM |  |  |  | > 100 µM |  | > 100 µM |  | > 100 µM |  | 44.2 µM |  | > 100 µM | > 100 µM | 
CC(C)(C=O)CC(C#N)/C(=N\NC(N)=O)C(=O)Nc1ccccc1C(N)=O (centres undefined) |  | > 100 µM |  | > 100 µM |  | > 100 µM |  |  |  | > 100 µM |  | > 100 µM |  | > 100 µM |  | > 100 µM |  | > 100 µM | > 100 µM | 
Cc1cc(C)c(C2[C@H]3C(=O)N(c4ccc(Cc5ccc(N6C(=O)[C@@H]7ON(c8ccccc8)C(c8c(C)cc(C)cc8C)[C@@H]7C6=O)cc5)cc4)C(=O)[C@H]3ON2c2ccccc2)c(C)c1 (some centres undefined) |  | > 100 µM |  | > 100 µM |  | > 100 µM |  |  |  | > 100 µM |  | > 100 µM |  | > 100 µM |  | > 100 µM |  | > 100 µM | > 100 µM | 
Cc1ccc(S(=O)(=O)NCCNc2nccc(-c3c(-c4ccc(F)cc4)nc4sccn34)n2)cc1 | 3.44 µM | > 100 µM | 2.3 µM | > 100 µM |  |  | 11 µM | > 100 µM | 5 µM | 53.8 µM | 5.58 µM | 37.4 µM | 12.3 µM | 31 µM | 3.52 µM | > 100 µM |  |  |  | 
NC(N)=NCCCCCNc1noc(Cc2c[nH]c3cc(Br)ccc23)n1 | 14.2 µM | > 100 µM | 39.9 µM | > 100 µM | 66.7 µM | > 100 µM | 8.05 µM | 30.2 µM | 10.4 µM | > 100 µM | 3.54 µM | 27.8 µM | 12.5 µM | 29.5 µM | 4.52 µM | 16.2 µM | 20 µM | > 100 µM |  | 
C[C@@]12CCCc3coc(c31)C(=O)c1cc3c(cc12)C(=O)C=CC3=O | > 1 µM | > 1 µM and 51.4 µM | > 1 µM | > 1 µM and 25.4 µM | > 1 µM | > 1 µM and 28.5 µM |  |  | > 1 µM | > 1 µM and 29.1 µM |  | > 1 µM | < 1 µM | > 1 µM and 30.1 µM | > 1 µM | > 1 µM and 30.9 µM | > 1 µM | > 1 µM and 20.1 µM | 34.1 µM | 
COc1ccc(-c2ccc(/C=N/n3c(C)n[nH]c3=S)o2)c([N+](=O)[O-])c1 | > 100 µM | > 100 µM | 93 µM | > 100 µM | > 100 µM | > 100 µM |  |  | 84 µM | > 100 µM | 47.5 µM | > 100 µM | 39.4 µM | > 100 µM |  |  | > 100 µM | > 100 µM | > 100 µM | > 100 µM
O=C1c2ccc3c4ccccc4n(Cc4ccccc4)c3c2C(=O)N1c1ccccc1 |  | 34.9 µM |  | > 50.5 µM |  | 25.1 µM |  |  |  | 31.9 µM |  | 40.8 µM |  | 31.1 µM |  | 29.9 µM |  | 20.1 µM | 39.4 µM | 
COc1ccc(-c2oc3cc(O)c(OC)c(O)c3c(=O)c2OC)cc1O | 1.07 µM | > 100 µM | 1.52 µM | > 100 µM | 2.38 µM | 28.3 µM |  |  | 0.375 µM | > 100 µM | 0.0754 µM | > 100 µM | 0.0445 µM | 21.9 µM | 0.0786 µM | 2.67 µM | 0.0485 µM | > 100 µM | > 100 µM | 3.43 µM
O=C1[C@H]2ON(c3ccccc3)C(c3ccc(Cl)cc3)[C@H]2C(=O)N1c1ccc(Cc2ccc(N3C(=O)[C@@H]4ON(c5ccccc5)C(c5ccc(Cl)cc5)[C@@H]4C3=O)cc2)cc1 (some centres undefined) |  | > 100 µM |  | > 100 µM |  | > 100 µM |  |  |  | > 100 µM |  | > 100 µM |  | > 100 µM |  | > 100 µM |  | > 100 µM | > 100 µM | 
COC(=O)CCC(=O)CC1CC(=O)C2CCCN12 (centres undefined) |  | > 100 µM |  | > 100 µM |  | > 100 µM |  |  |  | > 100 µM |  | > 100 µM |  | > 100 µM |  | > 100 µM |  | > 100 µM | > 100 µM | 
COc1ccc(C2c3cc(OC)c(OC)cc3C(Cc3ccc([N+](=O)[O-])cc3)C2c2ccc([N+](=O)[O-])cc2)cc1OC (centres undefined) |  | > 100 µM |  | > 100 µM |  | > 100 µM |  |  |  | > 100 µM |  | > 100 µM |  | > 100 µM |  | > 100 µM |  | > 100 µM | > 100 µM | 
C1C[OH+]CCNCC[OH+]CC[OH+]CCN1.[Cl-].[Pt+4] | > 100 µM | > 100 µM | > 100 µM | > 100 µM | > 100 µM | > 100 µM |  |  | > 100 µM | > 100 µM | > 100 µM | > 100 µM | > 100 µM | > 100 µM | > 100 µM | > 100 µM | > 100 µM | > 100 µM |  | 
COc1cc(C)c2c(c1C)OC(=O)c1c(C)c(Cl)c(O)c(C=O)c1O2 |  | 44.3 µM |  | 35.9 µM |  | > 100 µM |  |  |  | 27.4 µM |  | 65.1 µM |  | 26.6 µM |  | > 100 µM |  | > 100 µM | 26.4 µM | 
O=c1[nH]c2cc(Cl)ccc2nc1/C(=N\O)C(O)c1ccc(Cl)cc1Cl (centres undefined) |  | > 100 µM |  | > 100 µM |  | > 100 µM |  |  |  | > 100 µM |  | > 100 µM |  | > 100 µM |  | > 100 µM |  | > 100 µM |  | 
